# In patent USRE48097E1, “Cephem compounds, their production and use” (priority 2015, dated 2020):
# Where two headings read alike, the source gives them in different places.
# What was measured:
# E. coli 4098 = experiment: MIC against E. coli 4098; assay type: cell-based; settings: Table 2, E. coli 4098, CTX-M-15, TEM-1
# Source text: (§1) Without limitation, the present cephem compounds alone, or in combination with one or more β-lactamase inhibitors, may provide improved antibacterial efficacy, particularly in antibiotic-resistant bacterial strains. It is believed that the present compounds may be structurally different from known compounds and, as a result, may be more basic in nature. It is an advantage that the present compounds may extend the spectrum of effective bacterial compounds, particularly against previously-resistant bacteria (e.g. ESKAPE organisms), and/or gram negative bacteria, without significant side effects. In a preferred embodiment, the present cephem compound may comprise reference compound ceftazidime, which may be used alone, or in combination with one or more β-lactamase inhibitors, such as NXL-104. As shown, the foregoing composition was tested for minimum inhibitory concentration (MIC, μg/mL) against bacteria listed in Tables 2-3.
# E. cloacae 551 = experiment: MIC against E. cloacae 551; assay type: cell-based; settings: Table 2, E. cloacae 551, Caz R, IMP S
# Source text: as §1
# S. pneumoniae 2406 = experiment: MIC against S. pneumoniae 2406; assay type: cell-based; settings: Table 2, S. pneumoniae 2406, Pen S
# Source text: as §1
# S. pneumoniae ATCC 6301 = experiment: MIC against S. pneumoniae ATCC 6301; assay type: cell-based; settings: Table 2, S. pneumoniae ATCC 6301, Pen S
# Source text: as §1
# C. freundii 2003 = experiment: MIC against C. freundii 2003; assay type: cell-based; settings: Table 2, C. freundii 2003, Caz R, IMP S
# Source text: as §1
# E. coli 2671 = experiment: MIC against E. coli 2671; assay type: cell-based; settings: Table 2, E. coli 2671, VIM-19
# Source text: as §1
# S. pneumoniae 2493 = experiment: MIC against S. pneumoniae 2493; assay type: cell-based; settings: Table 2, S. pneumoniae 2493, Pen R
# Source text: as §1
# E. coli 102 = experiment: MIC against E. coli 102; assay type: cell-based; settings: Table 2, E. coli 102, TEM-1
# Source text: as §1
# S. pneumoniae 2404 = experiment: MIC against S. pneumoniae 2404; assay type: cell-based; settings: Table 2, S. pneumoniae 2404, Pen S
# Source text: as §1
# E. cloacae 2706 = experiment: MIC against E. cloacae 2706; assay type: cell-based; settings: Table 3, E. cloacae 2706, VIM-1, KPC-3
# Procedure: (§2) As shown, the foregoing composition was tested for minimum inhibitory concentration (MIC, μg/mL) against bacteria listed in Tables 2-3.
# C. freundii 15 = experiment: MIC against C. freundii 15; assay type: cell-based; settings: Table 2, C. freundii 15, Caz R, IMP S
# Source text: as §1
# S. pneumoniae 2403 = experiment: MIC against S. pneumoniae 2403; assay type: cell-based; settings: Table 2, S. pneumoniae 2403, Pen S
# Source text: as §1
# S. pneumoniae 2492 = experiment: MIC against S. pneumoniae 2492; assay type: cell-based; settings: Table 2, S. pneumoniae 2492, Pen R
# Source text: as §1
# K. pneumoniae 2697 = experiment: MIC against K. pneumoniae 2697; assay type: cell-based; settings: Table 2, K. pneumoniae 2697, IMP-4
# Source text: as §1
# E. cloacae 2044 = experiment: MIC against E. cloacae 2044; assay type: cell-based; settings: Table 2, E. cloacae 2044, Caz S, IMP S
# Source text: as §1
# C. freundii 580 = experiment: MIC against C. freundii 580; assay type: cell-based; settings: Table 2, C. freundii 580, Caz R, IMP S
# Source text: as §1
# K. pneumoniae 2689 = experiment: MIC against K. pneumoniae 2689; assay type: cell-based; settings: K. pneumoniae 2689, KPC-2
# Procedure: as §2
# M. morganii 2409 = experiment: MIC against M. morganii 2409; assay type: cell-based; settings: Table 2, M. morganii 2409, High level cephase, β-Lactamase producing
# Source text: as §1
# P. aeruginosa 2573 = experiment: MIC against P. aeruginosa 2573; assay type: cell-based; settings: Table 2, P. aeruginosa 2573, OXA-10 (Class D)
# Source text: as §1
# C. freundii 579 = experiment: MIC against C. freundii 579; assay type: cell-based; settings: Table 2, C. freundii 579, Caz R, IMP S
# Source text: as §1
# S. aureus 3147 = experiment: MIC against S. aureus 3147; assay type: cell-based; settings: Table 2, S. aureus 3147, MSSA
# Source text: as §1
# E. cloacae596 = experiment: MIC against E. cloacae596; assay type: cell-based, E. cloacae; settings: Table 2, E. cloacae596, Caz R, IMP S
# Source text: as §1
# S. pneumoniae 2392 = experiment: MIC against S. pneumoniae 2392; assay type: cell-based; settings: Table 2, S. pneumoniae 2392, Pen R
# Source text: as §1
# K. pneumoniae 2712 = experiment: MIC against K. pneumoniae 2712; assay type: cell-based; settings: Table 3, K. pneumoniae 2712, KPC-3, VIM-1
# Procedure: as §2
# [1] = Escherichia coli, alone, read-out: MIC
# [2] = Enterobacter cloacae, alone, read-out: MIC
# [3] = Streptococcus pneumoniae, alone, read-out: MIC
# [4] = Streptococcus pneumoniae, ATCC6301, alone, read-out: MIC
# [5] = Citrobacter freundii, alone, read-out: MIC
# [6] = Klebsiella pneumoniae, alone, read-out: MIC
# [7] = Klebsiella pneumoniae, 2689, Table 2, alone, read-out: MIC
# [8] = Klebsiella pneumoniae, 2689, Table 3, alone, read-out: MIC
# [9] = Table 2, in combination with NXL-104
# [10] = Table 3, in combination with NXL-104
# [11] = Morganella morganii, alone, read-out: MIC
# [12] = Pseudomonas aeruginosa, alone, read-out: MIC
# [13] = Staphylococcus aureus, alone, read-out: MIC
smiles,measurement,setting,value
"CC(C)(O/N=C(\C(=O)N[C@@H]1C(=O)N2C(C(=O)[O-])=C(C[n+]3ccc4c(ccn4Cc4cc(C(=N)N)co4)c3)CS[C@H]12)c1csc(N)n1)C(=O)O [Example 6, (6R,7R)-7-{[(2Z)-2-(2-Amino-1,3-thiazol-4-yl)-2-{[(2-carboxypropan-2-yl)oxy]imino}acetyl]amino}-3-({1-[(4-carbamimidoylfuran-2-yl)methyl]-1H-pyrrolo[3,2-c]pyridin-5-ium-5-yl}methyl)-8-oxo-5-thia-1-azabicyclo[4.2.0]oct-2-ene-2-carboxylate]",MIC,E. coli 4098; [1],32 µg/mL
same,MIC,E. coli 4098; in combination with NXL-104,0.12 µg/mL
same,MIC,E. cloacae 551; [2],16 µg/mL
same,MIC,E. cloacae 551; in combination with NXL-104,1.00 µg/mL
same,MIC,S. pneumoniae 2406; [3],≤ 0.06 µg/mL
same,MIC,S. pneumoniae 2406; in combination with NXL-104,≤0.06 µg/mL
same,MIC,S. pneumoniae ATCC 6301; [4],≤ 0.06 µg/mL
same,MIC,S. pneumoniae ATCC 6301; in combination with NXL-104,≤0.06 µg/mL
same,MIC,C. freundii 2003; [5],4 µg/mL
same,MIC,C. freundii 2003; in combination with NXL-104,0.50 µg/mL
same,MIC,E. coli 2671; [1],32 µg/mL
same,MIC,E. coli 2671; in combination with NXL-104,32.00 µg/mL
same,MIC,S. pneumoniae 2493; [3],2 µg/mL
same,MIC,S. pneumoniae 2493; in combination with NXL-104,2.00 µg/mL
same,MIC,E. coli 102; [1],≤ 0.06 µg/mL
same,MIC,E. coli 102; in combination with NXL-104,≤0.06 µg/mL
same,MIC,S. pneumoniae 2404; [3],≤ 0.06 µg/mL
same,MIC,S. pneumoniae 2404; in combination with NXL-104,≤0.06 µg/mL
same,MIC,E. cloacae 2706; [2],> 32 µg/mL
same,MIC,E. cloacae 2706; in combination with NXL-104,32 µg/mL
same,MIC,C. freundii 15; [5],8 µg/mL
same,MIC,C. freundii 15; in combination with NXL-104,0.50 µg/mL
same,MIC,S. pneumoniae 2403; [3],≤ 0.06 µg/mL
same,MIC,S. pneumoniae 2403; in combination with NXL-104,≤0.06 µg/mL
same,MIC,S. pneumoniae 2492; [3],2 µg/mL
same,MIC,S. pneumoniae 2492; in combination with NXL-104,2.00 µg/mL
same,MIC,K. pneumoniae 2697; [6],16 µg/mL
same,MIC,K. pneumoniae 2697; in combination with NXL-104,0.50 µg/mL
same,MIC,E. cloacae 2044; [2],0.12 µg/mL
same,MIC,E. cloacae 2044; in combination with NXL-104,≤0.06 µg/mL
same,MIC,C. freundii 580; [5],4 µg/mL
same,MIC,C. freundii 580; in combination with NXL-104,0.25 µg/mL
same,MIC,K. pneumoniae 2689; [7],16 µg/mL
same,MIC,K. pneumoniae 2689; [8],16 µg/mL
same,MIC,K. pneumoniae 2689; [9],1.00 µg/mL
same,MIC,K. pneumoniae 2689; [10],1 µg/mL
same,MIC,M. morganii 2409; [11],16 µg/mL
same,MIC,M. morganii 2409; in combination with NXL-104,1.00 µg/mL
same,MIC,P. aeruginosa 2573; [12],2 µg/mL
same,MIC,P. aeruginosa 2573; in combination with NXL-104,2.00 µg/mL
same,MIC,C. freundii 579; [5],2 µg/mL
same,MIC,C. freundii 579; in combination with NXL-104,0.25 µg/mL
same,MIC,S. aureus 3147; [13],4 µg/mL
same,MIC,S. aureus 3147; in combination with NXL-104,4.00 µg/mL
same,MIC,E. cloacae596; [2],8 µg/mL
same,MIC,E. cloacae596; in combination with NXL-104,0.50 µg/mL
same,MIC,S. pneumoniae 2392; [3],2 µg/mL
same,MIC,S. pneumoniae 2392; in combination with NXL-104,2.00 µg/mL
same,MIC,K. pneumoniae 2712; [6],> 32 µg/mL
same,MIC,K. pneumoniae 2712; in combination with NXL-104,4 µg/mL
"CC(C)(O/N=C(\C(=O)N[C@@H]1C(=O)N2C(C(=O)[O-])=C(C[n+]3ccc4c(ccn4Cc4cc(C(=N)N)cs4)c3)CS[C@H]12)c1csc(N)n1)C(=O)O [Example 5, (6R,7R)-7-{[(2Z)-2-(2-Amino-1,3-thiazol-4-yl)-2-{[(2-carboxypropan-2-yl)oxy]imino}acetyl]amino}-3-({1-[(4-carbamimidoylthiophen-2-yl)methyl]-1H-pyrrolo[3,2-c]pyridin-5-ium-5-yl}methyl)-8-oxo-5-thia-1-azabicyclo[4.2.0]oct-2-ene-2-carboxylate]",MIC,E. coli 4098; [1],> 32 µg/mL
same,MIC,E. coli 4098; in combination with NXL-104,0.12 µg/mL
same,MIC,E. cloacae 551; [2],32 µg/mL
same,MIC,E. cloacae 551; in combination with NXL-104,1.00 µg/mL
same,MIC,S. pneumoniae 2406; [3],≤ 0.06 µg/mL
same,MIC,S. pneumoniae 2406; in combination with NXL-104,≤0.06 µg/mL
same,MIC,S. pneumoniae ATCC 6301; [4],≤ 0.06 µg/mL
same,MIC,S. pneumoniae ATCC 6301; in combination with NXL-104,≤0.06 µg/mL
same,MIC,C. freundii 2003; [5],8 µg/mL
same,MIC,C. freundii 2003; in combination with NXL-104,0.25 µg/mL
same,MIC,E. coli 2671; [1],16 µg/mL
same,MIC,E. coli 2671; in combination with NXL-104,16.00 µg/mL
same,MIC,S. pneumoniae 2493; [3],2 µg/mL
same,MIC,S. pneumoniae 2493; in combination with NXL-104,2.00 µg/mL
same,MIC,E. coli 102; [1],≤ 0.06 µg/mL
same,MIC,E. coli 102; in combination with NXL-104,≤0.06 µg/mL
same,MIC,S. pneumoniae 2404; [3],≤ 0.06 µg/mL
same,MIC,S. pneumoniae 2404; in combination with NXL-104,≤0.06 µg/mL
same,MIC,E. cloacae 2706; [2],> 32 µg/mL
same,MIC,E. cloacae 2706; in combination with NXL-104,32 µg/mL
same,MIC,C. freundii 15; [5],16 µg/mL
same,MIC,C. freundii 15; in combination with NXL-104,0.50 µg/mL
same,MIC,S. pneumoniae 2403; [3],≤ 0.06 µg/mL
same,MIC,S. pneumoniae 2403; in combination with NXL-104,≤0.06 µg/mL
same,MIC,S. pneumoniae 2492; [3],2 µg/mL
same,MIC,S. pneumoniae 2492; in combination with NXL-104,2.00 µg/mL
same,MIC,K. pneumoniae 2697; [6],16 µg/mL
same,MIC,K. pneumoniae 2697; in combination with NXL-104,0.50 µg/mL
same,MIC,E. cloacae 2044; [2],0.5 µg/mL
same,MIC,E. cloacae 2044; in combination with NXL-104,0.12 µg/mL
same,MIC,C. freundii 580; [5],8 µg/mL
same,MIC,C. freundii 580; in combination with NXL-104,0.25 µg/mL
same,MIC,K. pneumoniae 2689; [7],8 µg/mL
same,MIC,K. pneumoniae 2689; [8],8 µg/mL
same,MIC,K. pneumoniae 2689; [9],1.00 µg/mL
same,MIC,K. pneumoniae 2689; [10],1 µg/mL
same,MIC,M. morganii 2409; [11],16 µg/mL
same,MIC,M. morganii 2409; in combination with NXL-104,0.50 µg/mL
same,MIC,P. aeruginosa 2573; [12],4 µg/mL
same,MIC,P. aeruginosa 2573; in combination with NXL-104,4.00 µg/mL
same,MIC,C. freundii 579; [5],4 µg/mL
same,MIC,C. freundii 579; in combination with NXL-104,0.25 µg/mL
same,MIC,S. aureus 3147; [13],2 µg/mL
same,MIC,S. aureus 3147; in combination with NXL-104,2.00 µg/mL
same,MIC,E. cloacae596; [2],8 µg/mL
same,MIC,E. cloacae596; in combination with NXL-104,0.25 µg/mL
same,MIC,S. pneumoniae 2392; [3],2 µg/mL
same,MIC,S. pneumoniae 2392; in combination with NXL-104,1.00 µg/mL
same,MIC,K. pneumoniae 2712; [6],> 32 µg/mL
same,MIC,K. pneumoniae 2712; in combination with NXL-104,4 µg/mL
